Our source for the EC50 values is paper PMC7126999 (Bioorganic & Medicinal Chemistry, 2015).

The test system of this assay is Punta Toro virus. The assay is described as follows: microbe, parasite or virus in culture. Format: cell-based. The following applies: Vero, read-out: EC50 Punta Toro virus.

The EC50 is the concentration at which the effect is half-maximal. Consider `NC(=O)c1ncn([C@@H]2O[C@H](CO)[C@@H](O)[C@H]2O)n1` [Ribavirin, ribavirin], for which the concentration for a half-maximal effect (EC50) stood at 250 µM.
